Values joined by “and” are separate entries in the source; they are usually repeats but may differ in a detail not shown here. Equal values may be shown once.
How the values were obtained:
Acetylcholinesterase = Acetylcholinesterase (Electrophorus electricus, UniProt O42275); experiment: Cholinesterase Inhibition Assay
[1] = molecular target: Carboxylic ester hydrolase (Equus caballus, UniProt Q9N1N9); experiment: Cholinesterase Inhibition Assay
Carboxylic ester hydrolase, sequence (Q9N1N9 whole entry): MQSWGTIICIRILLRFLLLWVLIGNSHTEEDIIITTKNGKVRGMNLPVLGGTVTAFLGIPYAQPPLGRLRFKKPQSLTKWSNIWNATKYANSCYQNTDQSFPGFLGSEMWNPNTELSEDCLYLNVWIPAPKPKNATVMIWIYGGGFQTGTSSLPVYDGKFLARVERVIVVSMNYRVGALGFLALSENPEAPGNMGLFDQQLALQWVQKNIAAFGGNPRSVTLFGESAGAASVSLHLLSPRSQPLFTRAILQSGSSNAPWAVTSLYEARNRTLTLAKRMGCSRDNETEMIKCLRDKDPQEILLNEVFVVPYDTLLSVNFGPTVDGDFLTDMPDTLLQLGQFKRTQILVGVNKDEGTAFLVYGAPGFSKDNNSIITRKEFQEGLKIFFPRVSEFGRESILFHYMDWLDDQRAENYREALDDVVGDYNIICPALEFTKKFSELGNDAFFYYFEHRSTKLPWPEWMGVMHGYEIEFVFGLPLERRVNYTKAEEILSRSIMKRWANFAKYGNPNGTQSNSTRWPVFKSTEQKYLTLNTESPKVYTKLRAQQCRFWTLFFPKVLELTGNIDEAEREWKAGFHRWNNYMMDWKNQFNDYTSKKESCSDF

Acetylcholinesterase, sequence (O42275 whole entry): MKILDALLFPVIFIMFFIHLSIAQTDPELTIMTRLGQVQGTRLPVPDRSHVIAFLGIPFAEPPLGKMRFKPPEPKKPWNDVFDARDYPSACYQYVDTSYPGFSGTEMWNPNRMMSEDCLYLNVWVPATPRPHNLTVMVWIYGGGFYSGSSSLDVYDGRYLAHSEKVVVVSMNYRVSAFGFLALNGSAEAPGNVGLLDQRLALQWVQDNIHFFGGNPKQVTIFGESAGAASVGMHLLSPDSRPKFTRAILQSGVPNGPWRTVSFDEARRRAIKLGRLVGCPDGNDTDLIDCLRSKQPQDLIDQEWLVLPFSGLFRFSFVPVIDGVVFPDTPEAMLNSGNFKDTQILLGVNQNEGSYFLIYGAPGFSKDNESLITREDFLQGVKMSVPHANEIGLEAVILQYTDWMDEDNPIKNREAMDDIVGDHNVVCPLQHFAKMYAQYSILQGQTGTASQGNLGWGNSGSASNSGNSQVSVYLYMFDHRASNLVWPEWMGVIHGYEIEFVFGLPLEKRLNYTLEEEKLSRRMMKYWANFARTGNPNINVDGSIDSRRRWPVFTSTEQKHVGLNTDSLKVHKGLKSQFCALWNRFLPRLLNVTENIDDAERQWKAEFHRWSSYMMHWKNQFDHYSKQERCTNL

Compound	IC50 (Acetylcholinesterase)	IC50 [1]
CC(=O)NC(Cc1cccc(F)c1)C(=O)O (centres undefined) [2-acetamido-3-(3-fluorophenyl)propanoic acid (2)]	63.6 µM	210 µM
CC(=O)NC(Cc1ccc(F)cc1)C(=O)Oc1ccccc1 (centres undefined) [Phenyl 2-acetamido-3-(4-fluorophenyl)propanoate (3j)]	98.3 µM	8.25 µM
CC(=O)NC(Cc1ccc(F)cc1)C(=O)Oc1ccc(Cl)cc1 (centres undefined) [4-Chlorophenyl 2-acetamido-3-(4-fluorophenyl)propanoate (3f)]	131 µM	59.1 µM
CC(=O)NC(Cc1cccc(F)c1)C(=O)Oc1ccccc1 (centres undefined) [Phenyl 2-acetamido-3-(3-fluorophenyl)propanoate (2j)]	87.8 µM	53.7 µM
CC(=O)NC(Cc1ccccc1F)C(=O)Nc1ccccc1 (centres undefined) [2-Acetamido-3-(2-fluorophenyl)-N-phenylpropanamide (1e)]	86.3 µM	121 µM
CC(=O)NC(Cc1cccc(F)c1)C(=O)Oc1ccc(C)cc1 (centres undefined) [4-Methylphenyl 2-acetamido-3-(3-fluorophenyl)propanoate (2g)]	68.5 µM	90.9 µM
CC(=O)NC(Cc1ccccc1F)C(=O)Oc1ccc(C)cc1 (centres undefined) [4-Methylphenyl 2-acetamido-3-(2-fluorophenyl)propanoate (1g)]	57.9 µM	85.4 µM
CC(=O)NC(Cc1ccccc1F)C(=O)Nc1ccc(C(F)(F)F)cc1 (centres undefined) [2-Acetamido-3-(2-fluorophenyl)-N-[4-(trifluoromethyl)phenyl]propanamide (1d)]	73.4 µM	218 µM
CC(=O)NC(Cc1ccccc1F)C(=O)Nc1ccc(Cl)cc1 (centres undefined) [2-Acetamido-N-(4-chlorophenyl)-3-(2-fluorophenyl)propanamide (1a)]	76.5 µM	227 µM
CC(=O)NC(Cc1cccc(F)c1)C(=O)Oc1ccc(C(F)(F)F)cc1 (centres undefined) [4-(Trifluoromethyl)phenyl 2-acetamido-3-(3-fluorophenyl)propanoate (2i)]	62.2 µM	34 µM
CC(=O)NC(Cc1ccc(F)cc1)C(=O)Oc1ccc([N+](=O)[O-])cc1 (centres undefined) [4-Nitrophenyl 2-acetamido-3-(4-fluorophenyl)propanoate (3h)]	60 µM	126 µM
CC(=O)NC(Cc1cccc(F)c1)C(=O)Oc1ccc(Cl)cc1 (centres undefined) [4-Chlorophenyl 2-acetamido-3-(3-fluorophenyl)propanoate (2f)]	115 µM	52.7 µM
CC(=O)NC(Cc1ccccc1F)C(=O)Nc1ccc(C)cc1 (centres undefined) [2-Acetamido-3-(2-fluorophenyl)-N-(4-methylphenyl)propanamide (1b)]	69 µM	113 µM
CC(=O)NC(Cc1ccc(F)cc1)C(=O)Nc1ccc(Cl)cc1 (centres undefined) [2-Acetamido-N-(4-chlorophenyl)-3-(4-fluorophenyl)propanamide (3a)]	97 µM	235 µM
CC(=O)NC(Cc1cccc(F)c1)C(=O)Nc1ccc(Cl)cc1 (centres undefined) [2-Acetamido-N-(4-chlorophenyl)-3-(3-fluorophenyl)propanamide (2a)]	70.7 µM	170 µM
CC(=O)NC(Cc1ccccc1F)C(=O)Oc1ccc(Cl)cc1 (centres undefined) [4-Chlorophenyl 2-acetamido-3-(2-fluorophenyl)propanoate (1f)]	104 µM	82.2 µM

Compound	IC50 (Acetylcholinesterase)	IC50 [1]
CC(=O)NC(Cc1ccc(F)cc1)C(=O)Nc1ccc(C)cc1 (centres undefined) [2-Acetamido-3-(4-fluorophenyl)-N-(4-methylphenyl)propanamide (3b)]	69 µM	154 µM
CC(=O)NC(Cc1ccccc1F)C(=O)Oc1ccc([N+](=O)[O-])cc1 (centres undefined) [4-Nitrophenyl 2-acetamido-3-(2-fluorophenyl)propanoate (1h)]	76.7 µM	77.5 µM
CC(=O)NC(Cc1ccc(F)cc1)C(=O)Nc1ccc([N+](=O)[O-])cc1 (centres undefined) [2-Acetamido-3-(4-fluorophenyl)-N-(4-nitrophenyl)propanamide (3c)]	66 µM	162 µM
CC(=O)NC(Cc1ccccc1F)C(=O)Oc1ccccc1 (centres undefined) [Phenyl 2-acetamido-3-(2-fluorophenyl)propanoate (1j)]	79.2 µM	30 µM
CC(=O)NC(Cc1cccc(F)c1)C(=O)Oc1ccc([N+](=O)[O-])cc1 (centres undefined) [4-Nitrophenyl 2-acetamido-3-(3-fluorophenyl)propanoate (2h)]	74.3 µM	142 µM
CC(=O)NC(Cc1cccc(F)c1)C(=O)Nc1ccc(C)cc1 (centres undefined) [2-Acetamido-3-(3-fluorophenyl)-N-(4-methylphenyl)propanamide (2b)]	68.7 µM	143 µM
CC(=O)NC(Cc1ccc(F)cc1)C(=O)O (centres undefined) [2-acetamido-3-(4-fluorophenyl)propanoic acid (3)]	63.7 µM	227 µM
CC(=O)NC(Cc1cccc(F)c1)C(=O)Nc1ccccc1 (centres undefined) [2-Acetamido-3-(3-fluorophenyl)-N-phenylpropanamide (2e)]	86.5 µM	157 µM
CC(=O)NC(Cc1cccc(F)c1)C(=O)Nc1ccc([N+](=O)[O-])cc1 (centres undefined) [2-Acetamido-3-(3-fluorophenyl)-N-(4-nitrophenyl)propanamide (2c)]	70.6 µM	120 µM
CC(=O)NC(Cc1ccccc1F)C(=O)O (centres undefined) [2-acetamido-3-(2-fluorophenyl)propanoic acid (1)]	64.2 µM	217 µM
CC(=O)NC(Cc1ccc(F)cc1)C(=O)Nc1ccc(C(F)(F)F)cc1 (centres undefined) [2-Acetamido-3-(4-fluorophenyl)-N-[4-(trifluoromethyl)phenyl]propanamide (3d)]	84.1 µM	289 µM
CC(=O)NC(Cc1ccccc1F)C(=O)Nc1ccc([N+](=O)[O-])cc1 (centres undefined) [2-Acetamido-3-(2-fluorophenyl)-N-(4-nitrophenyl)propanamide (1c)]	64.4 µM	154 µM
CC(=O)NC(Cc1cccc(F)c1)C(=O)Nc1ccc(C(F)(F)F)cc1 (centres undefined) [2-Acetamido-3-(3-fluorophenyl)-N-[4-(trifluoromethyl)phenyl]propanamide (2d)]	79.4 µM	164 µM
CC(=O)NC(Cc1ccccc1F)C(=O)Oc1ccc(C(F)(F)F)cc1 (centres undefined) [4-(Trifluoromethyl)phenyl 2-acetamido-3-(2-fluorophenyl)propanoate (1i)]	68 µM and 62.9 µM	37.4 µM and 59.8 µM
CC(=O)NC(Cc1ccc(F)cc1)C(=O)Nc1ccccc1 (centres undefined) [2-Acetamido-3-(4-fluorophenyl)-N-phenylpropanamide (3e)]	99.8 µM	89.8 µM
CC(=O)NC(Cc1ccc(F)cc1)C(=O)Oc1ccc(C)cc1 (centres undefined) [4-Methylphenyl 2-acetamido-3-(4-fluorophenyl)propanoate (3g)]	73.3 µM	83.3 µM
